Results reported in patent US7371780B2, “Use of calphostin C to treat drug-resistant tumor cells” (priority 2003, dated 2008).

How the values were obtained:
MCF-7TAX cells = experiment: Cytoplasmic shrinkage by hematoxylin/eosin staining, MCF-7TAX; assay type: cell-based, human
Procedure: For staining with hematoxylin and eosin, cells were grown in a six-well culture plate with each well containing a Snowcoat X-Tra™ microscope slide (Surgipath Laboratories, MB) immersed in 3 ml of H21 medium. When the cells reached 50% confluence, they were treated with 0-300 nM calphostin C, followed by a 2 hour exposure of the cultures to fluorescent light as described above. After light activation, the cells were placed in a 37° C. humidified incubator with 5% CO2 and incubated for an additional 22 hours. The cells were then stained with hematoxylin and eosin using a previously described procedure. Briefly, the media was removed from cell cultures and the cells that remained adhered to the slides were washed with PBS, fixed in formalin:acetone (1:2) for 2 min, and allowed to air dry for 10 min. After washing with distilled water, 250 μl of hematoxylin solution (BDH Chemicals, Toronto, ON) was placed on each slide and allowed to incubate with the cells for 5 min. The slides were then washed with distilled water, Scott's tap water (20 g MgSO4.7H2O, 1.5 g NaHCO3 in 1 L H2O), and a final wash with distilled water. The cells on the slides were then stained for 5 min in 250 μl of eosin solution (100 ml of 1% eosin, 10 ml of 1% phyloxine, 4 ml of glacial acetic acid, and 780 ml of 95% ethanol). The cells were then dehydrated by washing three times in 95% ethanol and twice in 100% ethanol. The small slide was then mounted on a standard microscope glass slide, and 10 randomly selected fields were viewed at 100× magnification and photographed. For each concentration of calphostin C, the total number of dead cells in each field was ascertained and expressed relative to the total number of cells in the field.

[1] = test system: Chinese hamster ovary (CHO) cells; experiment: Death and cytoplasmic vacuolization, CHO; assay type: cell-based; settings: data not shown
[2] = test system: MCF-7TAX (paclitaxel-resistant) cells; experiment: Clonogenic assay, MCF-7TAX cells; assay type: cell-based, human; settings: MCF-7TAX cells; 24 h drug; calphostin C light-activated 2 h
Procedure: The breast cancer cell line MCF-7 (lot HTB-22) was obtained from the American […] (ATCC) and maintained in Dulbecco's H21 medium (MEM) supplemented with 10% Fetal Bovine Serum (FBS) (HyClone, Logan, Utah) in a humidified atmosphere containing 5% CO2 at 37° C. To establish drug resistant cell lines, MCF-7 cells were grown in the presence of either paclitaxel or doxorubicin, beginning at a concentration 1000-fold below that required to kill 50% of the cells (the IC50). The drug concentration was increased 3-fold every two weeks (two passages), with an aliquot of the cells removed for storage in liquid nitrogen before each increase in concentration. Dose escalation continued until all cells died, after which the cells able to tolerate the highest concentration of drug were thawed for subsequent study. In this way, paclitaxel-resistant (MCF-7TAX) and doxorubicin-resistant (MCF-7DOX) cell lines were established. The IC50 for each drug was determined using a clonogenic assay as outlined below. The drug resistant cells were kept in culture in the presence of the maximally tolerated drug dose. Before each experiment, the cell lines were grown for two days in the absence of drug after which fresh medium containing either calphostin C (Sigma Laboratories, Oakville, ON), doxorubicin (Adriamycin PFS®, USP, Mississauga, ON) or paclitaxel (Taxol, Bristol-Myers Squibb, Montreal, QC) was added at the concentrations indicated.
The sensitivity of MCF-7, MCF-7TAX and MCF-7DOX cells to calphostin C, paclitaxel or doxorubicin was determined using a clonogenic assay. Briefly, 2.5×10^5 cells were seeded into 25 cm^2 tissue culture flasks in Dulbecco's H21 medium supplemented with 10% FBS. The cells were allowed to grow overnight, after which the medium was removed and replaced with medium containing varying concentrations of paclitaxel, doxorubicin, or calphostin C (after 2 hours of light exposure to activate the molecule). […] The colonies present in 5 randomly selected fields were then counted by visual inspection. […]

MCF-7DOX cells = experiment: Flow cytometric sub-G1 DNA content, MCF-7DOX; assay type: cell-based, human; settings: 100 nM calphostin C
Procedure: For flow cytometric analysis, cells at about 50% to 60% confluence were released from their flasks by trypsin treatment and washed with PBS. After centrifugation at 1000 rpm for 5 min, cells were then fixed by resuspension in 75% ethanol for 2 hours, collected by centrifugation, and resuspended in PI staining solution (see above) for 1 h. For each sample, approximately 2×10^4 cells were analyzed using a Beckman Coulter Epics® Elite flow cytometer. Fluorescence intensity upon stimulation with an argon-ion laser at 488 nm was measured using the PMT4 channel (625DL filter) and plotted against cell number. The percentage of cells with a sub-G1 DNA content was determined by the flow cytometer, adjusting the gates such that only cells with a fluorescence lower than the peak for untreated cells in G1 are counted (see FIG. 4).

MCF-7 cells = experiment: Drug uptake (flow cytometry / scintillation counting), MCF-7; assay type: cell-based, human; settings: 100 nM calphostin C
Procedure: FIG. 5 illustrates the effect of calphostin C (Cal-C) on drug uptake in MCF-7 (square symbols), MCF-7TAX (diamond symbols) and MCF-7DOX (triangular symbols) cells. After one-day growth, the cells were left untreated (closed symbols) or treated with 100 nM calphostin C for 2 h with light activation (open symbols). Cells were then washed and the medium replaced with medium containing 2 μM of doxorubicin (A) or [^3H]-paclitaxel (B). The cells were then trypsinized and drug accumulation measured by flow cytometry (A) or liquid scintillation counting (B) at indicated time points. The figures are representative of three independent experiments.

Compound: COc1c(C[C@@H](C)OC(=O)Oc2ccc(O)cc2)c2c3c(C[C@@H](C)OC(=O)c4ccccc4)c(OC)c(=O)c4c(O)cc(OC)c(c5c(OC)cc(O)c(c1=O)c52)c43 [calphostin C]
- concentration required for complete cytoplasmic shrinkage (MCF-7TAX cells): 300 nM
- percentage of cells exhibiting cytoplasmic shrinkage (MCF-7TAX cells; 25 nM calphostin C): remained unchanged
- percentage of cells exhibiting cytoplasmic shrinkage (MCF-7TAX cells; 50 nM calphostin C): 23%
- induction of death and cytoplasmic vacuolization [1]: induce both death and cytoplasmic vacuolization
- IC50 [2]: 9.2 nM
- time of strong increase in percentage of sub-G1 cells after treatment (MCF-7DOX cells; MCF-7ADR (so in the source), 2 h light): 8 h
- percentage of cells with sub-G1 DNA content versus similarly treated MCF-7 or MCF-7TAX cells (MCF-7DOX cells; MCF-7DOX): significantly lower
- effect on paclitaxel accumulation (MCF-7 cells): decreased paclitaxel accumulation
